# Key:
# [1] = target: T1, N-terminal His-tagged human Src (Homo sapiens, UniProt P12931); test: Src kinase inhibition assay (33P-ATP filter assay); format: biochemical
# T1 construct: His (N); purchased Upstate USA Inc, 706 Forest Street, Charlottesville, Va
# HCT116 cells = test: Whole cell cytotoxicity assay, Sulforhodamine B; format: cell-based; conditions: Homo sapiens, HCT-116, HCT116, 96 hours incubation, SRB; for GI50: read-out: GI50 HCT116 cell growth; for IC50: read-out: IC50 values in this assay (HCT116 cell growth)
# Procedure, shortened: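 HCT116 cells (500/well) in DMEM/10% FBS/2 mM glutamine were preincubated 24 h, then exposed to compound for 96 h at 37 °C, 5% CO2, in duplicate. Cells were fixed with TCA and stained with sulforhodamine B (A570). GI50, TGI and LC50 were derived relative to a time-zero plate and an untreated control.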
# [2] = group with IC50 greater than 100 nM
# T1 sequence (P12931 whole entry): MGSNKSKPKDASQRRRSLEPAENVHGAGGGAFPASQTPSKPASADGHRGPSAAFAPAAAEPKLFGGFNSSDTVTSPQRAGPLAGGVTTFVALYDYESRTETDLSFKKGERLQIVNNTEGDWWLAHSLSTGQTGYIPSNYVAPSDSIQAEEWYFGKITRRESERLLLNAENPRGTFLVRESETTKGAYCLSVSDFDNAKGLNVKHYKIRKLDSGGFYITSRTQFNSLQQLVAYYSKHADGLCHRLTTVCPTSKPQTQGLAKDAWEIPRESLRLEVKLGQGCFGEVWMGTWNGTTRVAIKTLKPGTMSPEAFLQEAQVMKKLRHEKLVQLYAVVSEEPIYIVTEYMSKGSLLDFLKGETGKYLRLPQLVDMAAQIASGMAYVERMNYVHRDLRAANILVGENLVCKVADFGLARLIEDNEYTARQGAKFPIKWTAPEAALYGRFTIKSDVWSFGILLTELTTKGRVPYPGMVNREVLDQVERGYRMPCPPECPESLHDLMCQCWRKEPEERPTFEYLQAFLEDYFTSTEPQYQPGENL
"IC50 [1, 2]",IC50 ([1]; 40 minutes at room temperature),SMILES,GI50 (HCT116 cells),IC50 (HCT116 cells)
,≤ 100 nM,"Cc1cc(Nc2cc(NC3CCOCC3)nc(-c3cc4cc(NS(=O)(=O)C5CC5)ccc4o3)n2)n[nH]1 [Example 156, N-(2-(4-(5-methyl-1H-pyrazol-3-ylamino)-6-(tetrahydro-2H-pyran-4-ylamino)pyrimidin-2-yl)benzofuran-5-yl)cyclopropanesulfonamide]",,1000 to 10000 nM
≤ 1000 nM,,"CCc1ccccc1-c1nc(Nc2cc(C)[nH]n2)cc(NC2CCOCC2)n1 [Example 174, 2-(2-ethylphenyl)-N^4-(5-methyl-1H-pyrazol-3-yl)-N^6-(tetrahydro-2H-pyran-4-yl)pyrimidine-4,6-diamine]",,1000 to 10000 nM
,≤ 100 nM,"Cc1cc(Nc2cc(N3CCN(C)CC3)nc(-c3ccc(F)c(F)c3)n2)n[nH]1 [Example 168, 2-(3,4-difluorophenyl)-N-(5-methyl-1H-pyrazol-3-yl)-6-(4-methylpiperazin-1-yl)pyrimidin-4-amine]",≤ 1000 nM,
,≤ 100 nM,"Cc1cc(Nc2cc(N3CCN(C)CC3)nc(-c3cc4cc(NS(=O)(=O)C5CC5)ccc4o3)n2)n[nH]1 [Example 155, N-(2-(4-(5-methyl-1H-pyrazol-3-ylamino)-6-(4-methylpiperazin-1-yl)pyrimidin-2-yl)benzofuran-5-yl)cyclopropanesulfonamide]",≤ 1000 nM,
≤ 1000 nM,,"COCCN(C)c1cc(Nc2cc(C)[nH]n2)nc(-c2cc(F)ccc2F)n1 [Example 184, 2-(2,5-difluorophenyl)-N^4-(2-methoxyethyl)-N^4-methyl-N^6-(5-methyl-1H-pyrazol-3-yl)pyrimidine-4,6-diamine]",,1000 to 10000 nM
≤ 1000 nM,,"Cc1cc(C)cc(-c2nc(Nc3cc(C)[nH]n3)cc(N3CCN(C)CC3)n2)c1 [Example 169, 2-(3,5-dimethylphenyl)-N-(5-methyl-1H-pyrazol-3-yl)-6-(4-methylpiperazin-1-yl)pyrimidin-4-amine]",≤ 1000 nM,
,≤ 100 nM,"COc1ccc(F)c(-c2nc(Nc3cc(C)[nH]n3)cc(N3CCN(C)CC3)n2)c1 [Example 197, 2-(2-fluoro-5-methoxyphenyl)-N-(5-methyl-1H-pyrazol-3-yl)-6-(4-methylpiperazin-1-yl)pyrimidin-4-amine]",≤ 1000 nM,
,≤ 100 nM,"Cc1cc(Nc2cc(N3CCN(C)CC3)nc(-c3ccc4c(c3)OC(F)(F)O4)n2)n[nH]1 [Example 178, 2-(2,2-difluorobezo[d][1,3]dioxol-5-yl)-N-(5-methyl-1H-pyrazol-3-yl)-6-(4-methylpiperazin-1-yl)pyrimidin-4-amine]",≤ 1000 nM,
≤ 1000 nM,,"Cc1cc(Nc2cc(N3CCN(C)CC3)nc(-c3cccc(C)c3C)n2)n[nH]1 [Example 179, 2-(2,3-dimethylphenyl)-N-(5-methyl-1H-pyrazol-3-yl)-6-(4-methylpiperazin-1-yl)pyrimidin-4-amine]",≤ 1000 nM,
,≤ 100 nM,"Cc1cc(Nc2cc(N3CCN(C)CC3)nc(-c3cccc(OC(F)(F)F)c3)n2)n[nH]1 [Example 192, N-(5-methyl-1H-pyrazol-3-yl)-6-(4-methylpiperazin-1-yl)-2-(3-(trifluoromethoxy)phenyl)pyrimidin-4-amine]",,1000 to 10000 nM
,≤ 100 nM,"Cc1ccc(F)c(-c2nc(Nc3cc(C)[nH]n3)cc(N3CCN(C)CC3)n2)c1 [Example 193, 2-(2-fluoro-5-methylphenyl)-N-(5-methyl-1H-pyrazol-3-yl)-6-(4-methylpiperazin-1-yl)pyrimidin-4-amine]",,1000 to 10000 nM
≤ 1000 nM,,"Cc1cc(Nc2cc(NC3CCOCC3)nc(-c3ccc(-c4ccccc4)cc3)n2)n[nH]1 [Example 158, 2-(biphenyl-4-yl)-N^4-(5-methyl-1H-pyrazol-3-yl)-N^6-(tetrahydro-2H-pyran-4-yl)pyrimidine-4,6-diamine]",,1000 to 10000 nM

# More lines, now with the values behind:
SMILES,"IC50 [1, 2]",IC50 ([1]; 40 minutes at room temperature),GI50 (HCT116 cells),IC50 (HCT116 cells)
"Cc1cc(Nc2cc(NCCN3CCN(C)CC3)nc(-c3ccccc3)n2)n[nH]1 [Compound 13, N^4-(5-methyl-1H-pyrazol-3-yl)-N^6-(2-(4-methylpiperazin-1-yl)ethyl)-2-phenylpyrimidine-4,6-diamine]",≤ 1000 nM,,≤ 1000 nM,
"Cc1cc(Nc2cc(N3CCN(C)CC3)nc(-c3ccc(F)cc3)n2)n[nH]1 [Compound 32, 2-(4-fluorophenyl)-N-(5-methyl-1H-pyrazol-3-yl)-6-(4-methylpiperazin-1-yl)pyrimidin-4-amine]",,≤ 100 nM,≤ 1000 nM,
"Cc1cc(Nc2cc(N(C)CCN(C)C)nc(-c3cccc(Cl)c3)n2)n[nH]1 [Compound 49, 2-(3-chlorophenyl)-N^4-(2-(dimethylamino)ethyl)-N^4-methyl-N^6-(5-methyl-1H-pyrazol-3-yl)pyrimidine-4,6-diamine]",,≤ 100 nM,≤ 1000 nM,
"Cc1cc(Nc2cc(N3CCN(C)CC3)nc(-c3cccc4ccccc34)n2)n[nH]1 [Example 134, N-(5-methyl-1H-pyrazol-3-yl)-6-(4-methylpiperazin-1-yl)-2-(naphthalen-1-yl)pyrimidin-4-amine]",,≤ 100 nM,,1000 to 10000 nM
"COCCN(C)c1cc(Nc2cc(C)[nH]n2)nc(-c2cccc(Cl)c2)n1 [Compound 62, 2-(3-chlorophenyl)-N^4-(2-methoxyethyl)-N^4-methyl-N^6-(5-methyl-1H-pyrazol-3-yl)pyrimidine-4,6-diamine]",≤ 1000 nM,,,1000 to 10000 nM
"Cc1cc(Nc2cc(NCCN3CCOCC3)nc(-c3cc4ccccc4n3C)n2)n[nH]1 [Compound 5, 2-(1-methyl-1H-indol-2-yl)-N^4-(5-methyl-1H-pyrazol-3-yl)-N^6-(2-morpholinoethyl)pyrimidine-4,6-diamine]",,≤ 100 nM,,1000 to 10000 nM
"COCCN(C)c1cc(Nc2cc(C)[nH]n2)nc(-c2ccc3c(c2)OCO3)n1 [Example 153, 2-(benzo[d][1,3]dioxol-5-yl)-N^4-(2-methoxyethyl)-N^4-methyl-N^6-(5-methyl-1H-pyrazol-3-yl)pyrimidine-4,6-diamine]",≤ 1000 nM,,,1000 to 10000 nM
"Cc1cc(Nc2cc(N3CCN(C)CC3)nc(-c3ccccc3Cl)n2)n[nH]1 [Compound 37, 2-(2-chlorophenyl)-N-(5-methyl-1H-pyrazol-3-yl)-6-(4-methylpiperazin-1-yl)pyrimidin-4-amine]",,≤ 100 nM,,1000 to 10000 nM
"COc1ccc(-c2nc(Nc3cc(C)[nH]n3)cc(N3CCN(C)CC3)n2)cc1 [Compound 41, 2-(4-methoxyphenyl)-N-(5-methyl-1H-pyrazol-3-yl)-6-(4-methylpiperazin-1-yl)pyrimidin-4-amine]",,≤ 100 nM,≤ 1000 nM,
"Cc1cc(Nc2cc(N3CCC(O)CC3)nc(-c3cc4ccccc4n3C)n2)n[nH]1 [Compound 3, 1-(6-(5-methyl-1H-pyrazol-3-ylamino)-2-(1-methyl-1H-indol-2-yl)pyrimidin-4-yl)piperidin-4-ol]",,≤ 100 nM,,1000 to 10000 nM
"Cc1cc(Nc2cc(NC3CCOCC3)nc(-c3cc4ccccc4n3C)n2)n[nH]1 [Compound 7, N^4-(tetrahydro-2H-pyran-4-yl)-2-(1-methyl-1H-indol-2-yl)-N^6-(5-methyl-1H-pyrazol-3-yl)pyrimidine-4,6-diamine]",≤ 1000 nM,,,1000 to 10000 nM
"Cc1cc(Nc2cc(NC3CCOCC3)nc(-c3ccccc3)n2)n[nH]1 [Compound 12, N^4-(tetrahydro-2H-pyran-4-yl)-N^6-(5-methyl-1H-pyrazol-3-yl)-2-phenylpyrimidine-4,6-diamine]",,≤ 100 nM,≤ 1000 nM,
"Cc1cc(Nc2cc(N3CCN(C)CC3)nc(-c3ccc4ccccc4c3)n2)n[nH]1 [Example 135, N-(5-methyl-1H-pyrazol-3-yl)-6-(4-methylpiperazin-1-yl)-2-(naphthalen-2-yl)pyrimidin-4-amine]",,≤ 100 nM,≤ 1000 nM,
"Cc1cccc(-c2nc(Nc3cc(C)[nH]n3)cc(N3CCN(C)CC3)n2)c1 [Compound 39, N-(5-methyl-1H-pyrazol-3-yl)-6-(4-methylpiperazin-1-yl)-2-m-tolylpyrimidin-4-amine]",,≤ 100 nM,≤ 1000 nM,
"Cc1cc(Nc2cc(N3CCN(C)CC3)nc(-c3ccc(N(C)C)cc3)n2)n[nH]1 [Compound 85, 2-(4-(dimethylamino)prenyl)-N-(b-methyl-1H-pyrazol-3-yl)-6-(4-methylpiperazin-1-yl)pyrimidin-4-amine]",,≤ 100 nM,≤ 1000 nM,
"Cc1cc(Nc2cc(NC3CCOCC3)nc(-c3ccc(F)cc3)n2)n[nH]1 [Compound 19, 2-(4-fluorophenyl)-N^4-(5-methyl-1H-pyrazol-3-yl)-N^6-(tetrahydro-2H-pyran-4-yl)pyrimidine-4,6-diamine]",≤ 1000 nM,,,1000 to 10000 nM
"Cc1cc(Nc2cc(N3CCN(C)CC3)nc(-c3cccc(N(C)C)c3)n2)n[nH]1 [Compound 86, 2-(3-(dimethylamino)phenyl)-N-(5-methyl-1H-pyrazol-3-yl)-b-(4-methylpiperazin-1-yl)pyrimidin-4-amine]",,≤ 100 nM,≤ 1000 nM,

# — US20090029992A1, “SUBSTITUTED PYRAZOLE COMPOUNDS” (priority 2007, published 2009)
